Assay results published in ChEMBL document CHEMBL3407420, “In silico studies, synthesis and binding evaluation of substituted 2-pyrrolidinones as peptidomimetics of RGD tripeptide sequence” (Eur J Med Chem, 2015).

Tests used:
[1] = target: Integrin alpha-V/beta-5 (Homo sapiens, UniProt P06756+P18084); assay: Binding affinity to alphaVbeta5 receptor (unknown origin); type: protein-complex assay
[2] = target: Integrin alpha-V/beta-3 (Homo sapiens, UniProt P05106+P06756); assay: Displacement of [125I]echistatin from purified human alphaVbeta3 receptor after 3 hrs by gamma counting; type: protein-complex assay
Sequence of Integrin alpha-V/beta-3 (P05106 27-788 limits assumed): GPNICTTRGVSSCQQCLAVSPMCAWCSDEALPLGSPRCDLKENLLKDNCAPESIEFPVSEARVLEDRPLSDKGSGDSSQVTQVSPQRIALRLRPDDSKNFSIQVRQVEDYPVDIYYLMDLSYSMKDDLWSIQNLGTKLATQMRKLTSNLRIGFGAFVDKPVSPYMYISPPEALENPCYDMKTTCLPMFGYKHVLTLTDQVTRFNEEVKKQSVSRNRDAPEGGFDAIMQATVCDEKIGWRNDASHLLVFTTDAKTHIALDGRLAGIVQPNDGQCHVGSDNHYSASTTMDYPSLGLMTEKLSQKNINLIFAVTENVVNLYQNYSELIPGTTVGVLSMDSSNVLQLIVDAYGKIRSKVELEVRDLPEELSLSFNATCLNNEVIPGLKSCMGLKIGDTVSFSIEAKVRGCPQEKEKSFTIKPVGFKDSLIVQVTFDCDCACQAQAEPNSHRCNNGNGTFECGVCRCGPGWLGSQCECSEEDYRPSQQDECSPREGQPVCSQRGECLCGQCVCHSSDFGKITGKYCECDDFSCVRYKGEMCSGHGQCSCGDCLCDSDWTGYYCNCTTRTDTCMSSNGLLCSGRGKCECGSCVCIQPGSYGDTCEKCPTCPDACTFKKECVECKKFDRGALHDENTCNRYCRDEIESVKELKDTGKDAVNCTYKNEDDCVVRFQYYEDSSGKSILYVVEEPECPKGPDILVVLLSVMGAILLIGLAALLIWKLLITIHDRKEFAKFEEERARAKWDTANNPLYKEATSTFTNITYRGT
Sequence of Integrin alpha-V/beta-3 (P06756 31-889 limits assumed): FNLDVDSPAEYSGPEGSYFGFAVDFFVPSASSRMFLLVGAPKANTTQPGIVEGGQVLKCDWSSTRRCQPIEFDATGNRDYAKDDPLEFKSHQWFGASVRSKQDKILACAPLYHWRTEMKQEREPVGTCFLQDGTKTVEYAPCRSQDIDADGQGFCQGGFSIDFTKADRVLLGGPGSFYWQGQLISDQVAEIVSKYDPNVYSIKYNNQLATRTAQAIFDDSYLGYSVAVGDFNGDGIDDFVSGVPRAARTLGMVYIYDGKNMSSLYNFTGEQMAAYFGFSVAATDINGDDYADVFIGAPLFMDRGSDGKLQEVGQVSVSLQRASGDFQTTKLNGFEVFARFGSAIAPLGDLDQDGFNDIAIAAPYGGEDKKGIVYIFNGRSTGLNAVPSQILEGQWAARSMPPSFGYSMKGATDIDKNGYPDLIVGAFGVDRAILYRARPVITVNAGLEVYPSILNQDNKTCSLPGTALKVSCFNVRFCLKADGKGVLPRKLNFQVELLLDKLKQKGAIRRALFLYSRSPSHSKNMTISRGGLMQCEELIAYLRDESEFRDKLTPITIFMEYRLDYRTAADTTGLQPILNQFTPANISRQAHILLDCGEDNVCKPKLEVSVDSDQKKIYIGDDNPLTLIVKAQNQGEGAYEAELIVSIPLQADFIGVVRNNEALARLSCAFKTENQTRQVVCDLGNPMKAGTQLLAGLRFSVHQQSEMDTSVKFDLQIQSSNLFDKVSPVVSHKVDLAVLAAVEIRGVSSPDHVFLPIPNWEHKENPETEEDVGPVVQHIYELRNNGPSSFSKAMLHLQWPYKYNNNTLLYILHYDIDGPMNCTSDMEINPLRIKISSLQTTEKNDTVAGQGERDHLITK
Sequence of Integrin alpha-V/beta-3 (P06756 891-1048 limits assumed): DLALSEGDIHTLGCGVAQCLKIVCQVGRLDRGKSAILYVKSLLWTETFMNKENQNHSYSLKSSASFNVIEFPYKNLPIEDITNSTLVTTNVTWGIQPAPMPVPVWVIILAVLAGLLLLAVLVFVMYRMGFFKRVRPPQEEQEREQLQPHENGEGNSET

Sequence of Integrin alpha-V/beta-5 (P06756 31-889 limits assumed): as the sequence (P06756 31-889 limits assumed) above
Sequence of Integrin alpha-V/beta-5 (P06756 891-1048 limits assumed): as the sequence (P06756 891-1048 limits assumed) above
Sequence of Integrin alpha-V/beta-5 (P18084 24-799 limits assumed): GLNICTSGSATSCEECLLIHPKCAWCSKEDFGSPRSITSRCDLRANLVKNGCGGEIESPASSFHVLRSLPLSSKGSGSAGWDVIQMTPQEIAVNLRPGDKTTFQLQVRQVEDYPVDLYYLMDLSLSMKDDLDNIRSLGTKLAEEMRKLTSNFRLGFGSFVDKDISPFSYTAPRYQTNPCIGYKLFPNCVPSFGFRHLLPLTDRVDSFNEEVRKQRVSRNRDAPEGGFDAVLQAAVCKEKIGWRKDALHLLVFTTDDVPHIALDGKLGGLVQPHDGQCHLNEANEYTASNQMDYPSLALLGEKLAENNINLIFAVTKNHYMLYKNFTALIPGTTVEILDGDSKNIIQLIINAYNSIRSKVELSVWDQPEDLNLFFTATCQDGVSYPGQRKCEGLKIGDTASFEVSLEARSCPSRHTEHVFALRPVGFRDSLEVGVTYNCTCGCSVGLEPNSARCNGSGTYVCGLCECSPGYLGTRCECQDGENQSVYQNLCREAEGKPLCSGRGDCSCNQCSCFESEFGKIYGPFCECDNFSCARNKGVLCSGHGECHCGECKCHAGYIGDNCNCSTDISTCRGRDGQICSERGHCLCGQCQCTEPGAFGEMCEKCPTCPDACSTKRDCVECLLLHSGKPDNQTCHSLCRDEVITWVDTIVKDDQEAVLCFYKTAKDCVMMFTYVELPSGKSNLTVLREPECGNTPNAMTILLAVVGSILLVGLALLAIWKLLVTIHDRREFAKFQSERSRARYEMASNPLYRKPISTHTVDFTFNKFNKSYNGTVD

IC50 [1] [µM]	IC50 [2] [µM]	SMILES
30		N=C(N)NCCC[C@@H]1NC(=O)[C@H](CCCCN)NC(=O)[C@@H](Cc2ccccc2)NC(=O)[C@H](CC(=O)O)NC(=O)CNC1=O
	50	N=C(N)NCCC[C@@H]1CCN([C@@H](CCCCN)C(=O)NCCC(=O)O)C1=O
	100	N=C(N)NCCC[C@@H]1CCN([C@@H](CCCCNC(=O)OCc2ccccc2)C(=O)NCCC(=O)O)C1=O
	> 100	N=C(N)NCCNC(=O)[C@H](CCCCNC(=O)OCc1ccccc1)N1CC[C@H](CCC(=O)O)C1=O
